According to US4254128A, “2-Adamantyl hydrazines and biocidal compositions thereof” (Teva Pharmaceutical Industries Ltd., priority 1977, dated 1981):
Counter-ions that a name gives are not always drawn.

How the values were obtained:
[1] = tested on: Leptospira canicola Kipod 146; experiment: Anti leptospiral activity (minimal inhibition concentration); format: cell-based; settings: for MIC: Leptospira interrogans, KIPOD146, 240 h; for anti leptospiral activity: summary in words
Experimental: The tests were carried out under the following conditions:
Leptospira: Leptospira canicola Kipod 146
Inoculum: 1-10^5 cells/ml
Incubation time: 10 days, 28° C.
Evaluation: Direct count in dark field microscopy after 4,7 and 10 days.
2 Minimal+0.5% albumin (Pentex)
3 Korthof rich medium with 8% serum.
4 Korthof rich medium with 2% serum.

L. tropica amastigotes = experiment: Anti leishmania test, amastigotes in peritoneal exudate cells in vitro; format: cell-based; settings: 37° C.
Experimental: (§1) a. amastigotes in peritoneal exudate cells in Mc Coy's medium in vitro at 37° C.
+++=clearance of all parasites in 24 hours
++=clearance of all parasites in 48 hours
+=clearance of all parasites in 72 hours
±=Partial clearance of parasites in 72 hours or more
-=No activity against parasites.

Leishmania = experiment: Anti leishmania tests, summary; format: cell-based, L. tropica; settings: summary in words
Experimental: as §1
b. promastigotes in Mc Coy's medium in vitro at 27° C.

Pythium = experiment: Antifungal activity in plants, growth on solid agar; format: cell-based; settings: read-out: inhibiting concentration
Experimental: (§2) Antiplant fungal activity was tested as follows:
(§3) Inhibition of growth on solid agar mixed with various concentrations of the tested compounds.

S. rolfsii = experiment: as above; format: cell-based; settings: Agroathelia rolfsii, read-out: inhibiting concentration
Experimental: as §2, §3

Sclerotinia = experiment: as above; format: cell-based; settings: read-out: inhibiting concentration
Experimental: as §2, §3

[2] = tested on: 4 mycoplasma (M. gallisepticum, M. capricolum, M. hominis, A. laidlawii); experiment: organism not typed; format: cell-based; settings: read-out: 50% inhibition of growth
albino rats = experiment: Antiparkinson activity (catalepsy produced by haloperidol); format: in vivo, Male Charles River albino rats
Experimental: Male Charles River albino rats, weighing 200-250 g, were used. Catalepsy was produced by haloperidol, 5 mg/kg i.p. The animals were placed with their front paws on a horizontal bar, about 10 cm above the ground, and animals were considered cataleptic if not changing posture for at least 30 sec. Cataleptic animals were injected i.p. with one of the drugs at a dose of 40-80 mg/kg. Catalepsy was estimated again at the intervals indicated.

albino mice [3] = experiment: Stereotyped behaviour in mice; format: in vivo, Male ICR albino mice; design: stereotyped behaviour score / Total Score / Mean Score: scale not given here
Experimental: Male ICR albino mice weighing 25-30 g were put in cages with a metal grid floor, 4 in each cage. Drugs were injected intraperitoneally and stereotyped behaviour (sniffing, biting, repetitive head movement) was evaluated every 30 min.

HSV-1 (Herpes Simplex) = experiment: Inhibition test on HSV replication; format: cell-based; settings: Human alphaherpesvirus 1, BSC-1 cells, 10 PFU/cell
Excerpt: BSC-1 (Green monkey kidney)
**% Inhibition of control infected for some time with same virus PFV with […]

albino mice [4] = experiment: Stereotyped behaviour in mice; format: in vivo, Male ICR albino mice; design: scale not given here; settings: 50 mg/kg i.p.
[5] = Toxic limit in the HSV replication test; settings: monkey, bsc-1 cells

Compound `NNC1C2CC3CC(C2)CC1C3` (stereo not shown) [Example 18, 2-Adamantylhydrazine hydrochloride] has an MIC ([1]; Korthof + 2% serum) of 12.5 µg/mL, an MIC ([1]; Korthof + 8% serum) of 125 µg/mL and an MIC ([1]; minimal + Pentex (0.5% albumin)) of 6.25 µg/mL. For the same compound, the MIC ([1]; minimal medium) was 3.12 µg/mL, the anti leptospiral activity [1] was “active” and the “Leishmania amastigote activity score” value (L. tropica amastigotes; 10 μg) was “++ (clearance of all parasites in 48 hours)”. For the same compound, the “Leishmania amastigote activity score” value (L. tropica amastigotes; 100 μg) was “+++ (clearance of all parasites in 24 hours)”, the “activity against Leishmania” value (Leishmania) was “active” and the MIC (Pythium) was 50 µg/mL. For the same compound, the MIC (S. rolfsii) was 50 µg/mL and the MIC (Sclerotinia) was 50 µg/mL.

In the case of `CN(NC1C2CC3CC(C2)CC1C3)c1cccc(C(F)(F)F)c1` (stereo not shown) [Example 29, 1-(2'-Adamantyl)-2-methyl-2-(m-trifluoromethylphenyl)hydrazine hydrochloride hemihydrate], the MIC ([1]; Korthof + 8% serum) is reported as 6.25 µg/mL, the MIC ([1]; minimal medium) is reported as 6.25 µg/mL and the anti leptospiral activity [1] is reported as “active”. It also gave an MIC (Pythium) of 50 µg/mL, an MIC (S. rolfsii) of 50 µg/mL and an MIC (Sclerotinia) of 50 µg/mL.

With `C1CCN(NC2C3CC4CC(C3)CC2C4)CC1` (stereo not shown) [Example 10, 1-(2'-Adamantylamino)piperidine hydrochloride] the MIC ([1]; Korthof + 8% serum) was 100 µg/mL, the MIC ([1]; minimal medium) was 12.5 µg/mL and the anti leptospiral activity [1] was “active”. The IC50 [2] was 5 to 30 µg/mL, the Mean maximal effect (albino rats; 80 mg/kg i.p., mean of 5 rats) was 1/4 and the anticataleptic effect (albino rats; 80 mg/kg i.p., rat 1) was 0/4. The anticataleptic effect (albino rats; 80 mg/kg i.p., rat 2) was 1/4, the anticataleptic effect (albino rats; 80 mg/kg i.p., rat 3) was 0/4 and the anticataleptic effect (albino rats; 80 mg/kg i.p., rat 4) was 1/4. The anticataleptic effect (albino rats; 80 mg/kg i.p., rat 5) was 3/4, the antiparkinson activity (albino rats; summary in words) was “active” and the stereotyped behaviour score (albino mice [3]; 50 mg/kg i.p., 0 min, mouse 1) was 0. The stereotyped behaviour score (albino mice [3]; 50 mg/kg i.p., 0 min, mouse 2) was 0, the stereotyped behaviour score (albino mice [3]; 50 mg/kg i.p., 0 min, mouse 3) was 0 and the stereotyped behaviour score (albino mice [3]; 50 mg/kg i.p., 0 min, mouse 4) was 0. For the same compound, the stereotyped behaviour score (albino mice [3]; 50 mg/kg i.p., 30 min, mouse 1) was 1, the stereotyped behaviour score (albino mice [3]; 50 mg/kg i.p., 30 min, mouse 2) was 1 and the stereotyped behaviour score (albino mice [3]; 50 mg/kg i.p., 30 min, mouse 3) was 1. It also gave a stereotyped behaviour score (albino mice [3]; 50 mg/kg i.p., 30 min, mouse 4) of 1, a stereotyped behaviour score (albino mice [3]; 50 mg/kg i.p., 45 min, mouse 3) of 1 and a stereotyped behaviour score (albino mice [3]; 50 mg/kg i.p., 45 min, mouse 4) of 0. It also gave a stereotyped behaviour score (albino mice [3]; 50 mg/kg i.p., 60 min, mouse 1) of 1, a stereotyped behaviour score (albino mice [3]; 50 mg/kg i.p., 60 min, mouse 2) of 1 and a stereotyped behaviour score (albino mice [3]; 50 mg/kg i.p., 60 min, mouse 3) of 1. The stereotyped behaviour score (albino mice [3]; 50 mg/kg i.p., 60 min, mouse 4) was 1, the stereotyped behaviour score (albino mice [3]; 50 mg/kg i.p., 90 min, mouse 1) was 1 and the stereotyped behaviour score (albino mice [3]; 50 mg/kg i.p., 90 min, mouse 2) was 1. It also gave a stereotyped behaviour score (albino mice [3]; 50 mg/kg i.p., 90 min, mouse 3) of 1, a stereotyped behaviour score (albino mice [3]; 50 mg/kg i.p., 90 min, mouse 4) of 1 and a stereotyped behaviour score (albino mice [3]; 50 mg/kg i.p., 120 min, mouse 1) of 0. It also gave a stereotyped behaviour score (albino mice [3]; 50 mg/kg i.p., 120 min, mouse 2) of 0, a stereotyped behaviour score (albino mice [3]; 50 mg/kg i.p., 120 min, mouse 3) of 0 and a stereotyped behaviour score (albino mice [3]; 50 mg/kg i.p., 120 min, mouse 4) of 0. It also gave a stereotyped behaviour score (albino mice [3]; 50 mg/kg i.p., 135 min, mouse 1) of 0, a stereotyped behaviour score (albino mice [3]; 50 mg/kg i.p., 135 min, mouse 2) of 0 and a stereotyped behaviour score (albino mice [3]; 50 mg/kg i.p., 150 min, mouse 1) of 0. The stereotyped behaviour score (albino mice [3]; 50 mg/kg i.p., 150 min, mouse 2) was 0, the stereotyped behaviour score (albino mice [3]; 50 mg/kg i.p., 150 min, mouse 3) was 0 and the stereotyped behaviour score (albino mice [3]; 50 mg/kg i.p., 150 min, mouse 4) was 0. For the same compound, the stereotyped behaviour score (albino mice [3]; 50 mg/kg i.p., 180 min, mouse 1) was 1, the stereotyped behaviour score (albino mice [3]; 50 mg/kg i.p., 180 min, mouse 2) was 1 and the stereotyped behaviour score (albino mice [3]; 50 mg/kg i.p., 180 min, mouse 3) was 0. It also gave a stereotyped behaviour score (albino mice [3]; 50 mg/kg i.p., 180 min, mouse 4) of 0, a stereotyped behaviour score (albino mice [3]; 50 mg/kg i.p., 210 min, mouse 1) of 1 and a stereotyped behaviour score (albino mice [3]; 50 mg/kg i.p., 210 min, mouse 2) of 0. The stereotyped behaviour score (albino mice [3]; 50 mg/kg i.p., 210 min, mouse 3) was 0, the stereotyped behaviour score (albino mice [3]; 50 mg/kg i.p., 210 min, mouse 4) was 0 and the stereotyped behaviour score (albino mice [3]; 50 mg/kg i.p., 240 min, mouse 1) was 0. For the same compound, the stereotyped behaviour score (albino mice [3]; 50 mg/kg i.p., 240 min, mouse 2) was 0, the stereotyped behaviour score (albino mice [3]; 50 mg/kg i.p., 240 min, mouse 3) was 0 and the stereotyped behaviour score (albino mice [3]; 50 mg/kg i.p., 240 min, mouse 4) was 0. The “Mean Score” value (albino mice [3]; 50 mg/kg i.p., mean of 4 mice) was 4.75, the “Total Score” value (albino mice [3]; 50 mg/kg i.p., mouse 1) was 6 and the “Total Score” value (albino mice [3]; 50 mg/kg i.p., mouse 2) was 6. The “Total Score” value (albino mice [3]; 50 mg/kg i.p., mouse 3) was 4, the “Total Score” value (albino mice [3]; 50 mg/kg i.p., mouse 4) was 3 and the stereotyped behaviour activity (albino mice [3]; summary in words) was “active”. For the same compound, the inhibition at 10 µg/mL (HSV-1 (Herpes Simplex); 10 μg/ml) was 50%, the inhibition at 25 µg/mL (HSV-1 (Herpes Simplex); 25 μg/ml) was 40% and the inhibition at 50 µg/mL (HSV-1 (Herpes Simplex); 50 μg/ml, read-out: % Inhibition) was 96%. For the same compound, the stereotyped behaviour score (albino mice [4]; 45 min, mouse 1) was 1, the stereotyped behaviour score (albino mice [4]; 45 min, mouse 2) was 2 and the stereotyped behaviour score (albino mice [4]; 135 min, mouse 3) was 0. The stereotyped behaviour score (albino mice [4]; 135 min, mouse 4) was 0 and the MNTC [5] was 50 µg/mL.
